The source made the active and inactive calls. The calls are words filed in the database; no cut-off is given here.
What was measured:
[1] = system: T-cell; test: Inhibition of DNA synthesis in PMA-ionomycin stimulated human T cells after 4 hrs by [3H]thymidine incorporation assay; format: functional, cell-based
[2] = system: T-cell; test: Reduction in extracellular lactate production in PMA-ionomycin stimulated human T cells after 4 hrs; format: functional, cell-based
[3] = system: T-cell; test: Increase in intracellular lactate production in PMA-ionomycin stimulated human T cells after 4 hrs; format: functional, cell-based
[4] = Antiproliferative activity against human T cells assessed as inhibition of PMA-ionomycin stimulated cell proliferation after 3 days by [3H]thymidine incorporation assay; format: functional, cell-based
[5] = biological target: T1, Monocarboxylate transporter 1 (Homo sapiens, UniProt P53985); test: Displacement of [3H]5-[(3-hydroxypropyl)thio]-3-methyl-1-[2-(methyl-t)propyl-2,3-t2]-6-(1-naphthalenylmethyl)-1H-pyrrolo[3,4-d]pyrimidine-2,4(3H,6H)-dione from human MCT1 expressed in INS1 cell membrane; format: cell membranes
T1 sequence (P53985 whole entry): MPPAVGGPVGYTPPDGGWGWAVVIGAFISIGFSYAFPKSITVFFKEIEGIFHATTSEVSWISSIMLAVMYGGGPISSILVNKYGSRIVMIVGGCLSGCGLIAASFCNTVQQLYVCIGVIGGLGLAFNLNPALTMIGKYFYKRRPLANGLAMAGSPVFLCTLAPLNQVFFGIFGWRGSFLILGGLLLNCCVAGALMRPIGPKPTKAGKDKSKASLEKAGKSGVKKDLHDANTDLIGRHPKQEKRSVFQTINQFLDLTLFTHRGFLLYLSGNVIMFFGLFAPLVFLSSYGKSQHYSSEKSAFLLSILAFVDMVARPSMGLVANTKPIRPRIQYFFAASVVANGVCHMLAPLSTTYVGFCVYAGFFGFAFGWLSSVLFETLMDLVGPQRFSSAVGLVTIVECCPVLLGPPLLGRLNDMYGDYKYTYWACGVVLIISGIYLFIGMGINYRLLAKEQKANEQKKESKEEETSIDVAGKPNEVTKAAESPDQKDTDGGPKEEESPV

[6] = biological target: T1, Monocarboxylate transporter 1; test: Displacement of [3H]5-[(3-hydroxypropyl)thio]-3-methyl-1-[2-(methyl-t)propyl-2,3-t2]-6-(1-naphthalenylmethyl)-1H-pyrrolo[3,4-d]pyrimidine-2,4(3H,6H)-dione from MCT1 in human Jurkat cell membranes
[7] = system: PBMC; test: Antiproliferative activity against human PBMC assessed as inhibition of PMA/ionomycin-stimulated cell proliferation by [3H]thymidine incorporation assay; format: functional, cell-based
[8] = system: HUVEC; test: Antiproliferative activity against human HUVEC assessed as inhibition of acidic FGF-stimulated cell proliferation by fluorimetric assay; format: functional, cell-based
[9] = system: HUVEC; test: Antiproliferative activity against human HUVEC assessed as inhibition of basic FGF-stimulated cell proliferation by fluorimetric assay; format: functional, cell-based
[10] = Antiproliferative activity against human primary epidermal keratinocytes assessed as inhibition of cell proliferation by fluorimetric assay; format: functional, cell-based; conditions: Keratinocyte
[11] = system: HEK293; test: Antiproliferative activity against HEK293 cells assessed as inhibition of cell proliferation by fluorimetric assay; format: functional, cell-based; conditions: Homo sapiens
[12] = system: THP-1; test: Antiproliferative activity against human THP1 cells assessed as inhibition of cell proliferation by fluorimetric assay; format: functional, cell-based
[13] = system: K562; test: Antiproliferative activity against human K562 cells assessed as inhibition of cell proliferation by fluorimetric assay; format: functional, cell-based
[14] = system: HT-29; test: Antiproliferative activity against human HT-29 cells assessed as inhibition of cell proliferation by fluorimetric assay; format: functional, cell-based
[15] = system: SW480; test: Antiproliferative activity against human SW480 cells assessed as inhibition of cell proliferation by fluorimetric assay; format: functional, cell-based
[16] = system: ZR-75-1; test: Antiproliferative activity against human ZR-75-1 cells assessed as inhibition of cell proliferation by fluorimetric assay; format: functional, cell-based
[17] = system: PANC-1; test: Antiproliferative activity against human PANC1 cells assessed as inhibition of cell proliferation by fluorimetric assay; format: functional, cell-based
[18] = system: T-24; test: Antiproliferative activity against human T24 cells assessed as inhibition of cell proliferation by fluorimetric assay; format: functional, cell-based
[19] = Antiproliferative activity against human KIT225 cells assessed as inhibition of IL2-stimulated cell proliferation by fluorimetric assay; format: functional, cell-based
[20] = system: HUVEC; test: Antiproliferative activity against human HUVEC assessed as inhibition of acidic FGF-stimulated cell proliferation at 1 uM by fluorimetric assay; format: functional
[21] = system: HUVEC; test: Antiproliferative activity against human HUVEC assessed as inhibition of basic FGF-stimulated cell proliferation at 1 uM by fluorimetric assay; format: functional
[22] = Antiproliferative activity against human primary epidermal keratinocytes assessed as inhibition of cell proliferation at 1 uM by fluorimetric assay; format: functional; conditions: Keratinocyte
[23] = system: HEK293; test: Antiproliferative activity against HEK293 cells assessed as inhibition of cell proliferation at 1 uM by fluorimetric assay; format: functional; conditions: Homo sapiens
[24] = system: THP-1; test: Antiproliferative activity against human THP1 cells assessed as inhibition of cell proliferation at 1 uM by fluorimetric assay; format: functional
[25] = system: K562; test: Antiproliferative activity against human K562 cells assessed as inhibition of cell proliferation at 1 uM by fluorimetric assay; format: functional
[26] = system: HT-29; test: Antiproliferative activity against human HT-29 cells assessed as inhibition of cell proliferation at 1 uM by fluorimetric assay; format: functional
[27] = system: SW480; test: Antiproliferative activity against human SW480 cells assessed as inhibition of cell proliferation at 1 uM by fluorimetric assay; format: functional
[28] = system: ZR-75-1; test: Antiproliferative activity against human ZR-75-1 cells assessed as inhibition of cell proliferation at 1 uM by fluorimetric assay; format: functional
[29] = system: PANC-1; test: Antiproliferative activity against human PANC1 cells assessed as inhibition of cell proliferation at 1 uM by fluorimetric assay; format: functional
[30] = system: T-24; test: Antiproliferative activity against human T24 cells assessed as inhibition of cell proliferation at 1 uM by fluorimetric assay; format: functional
[31] = Antiproliferative activity against human KIT225 cells assessed as inhibition of IL2-stimulated cell proliferation at 1 uM by fluorimetric assay; format: functional
[32] = system: T-cell; test: Antiproliferative activity against human T cells assessed as inhibition of PMA-ionomycin stimulated cell proliferation by [3H]thymidine incorporation assay; format: functional, cell-based
[33] = system: T-cell; test: Antiproliferative activity against Lewis rat T cells assessed as inhibition of PMA-ionomycin stimulated cell proliferation by [3H]thymidine incorporation assay; format: functional, cell-based
[34] = system: Rattus norvegicus; test: Inhibition of graft-versus-host response-induced lymph node expansion in DA/Lewis recipient rat administered once daily through subcutaneous route; format: functional; conditions: sc
[35] = biological target: T2, Monocarboxylate transporter 3 (Homo sapiens) (UniProt O95907); test: Inhibition of human MCT3 expressed in INS1 cells assessed as reduction in intracellular acidification at 100 nM after 1 hr by L-Lactate uptake based BCECF staining; format: cell-based
T2 sequence (whole entry): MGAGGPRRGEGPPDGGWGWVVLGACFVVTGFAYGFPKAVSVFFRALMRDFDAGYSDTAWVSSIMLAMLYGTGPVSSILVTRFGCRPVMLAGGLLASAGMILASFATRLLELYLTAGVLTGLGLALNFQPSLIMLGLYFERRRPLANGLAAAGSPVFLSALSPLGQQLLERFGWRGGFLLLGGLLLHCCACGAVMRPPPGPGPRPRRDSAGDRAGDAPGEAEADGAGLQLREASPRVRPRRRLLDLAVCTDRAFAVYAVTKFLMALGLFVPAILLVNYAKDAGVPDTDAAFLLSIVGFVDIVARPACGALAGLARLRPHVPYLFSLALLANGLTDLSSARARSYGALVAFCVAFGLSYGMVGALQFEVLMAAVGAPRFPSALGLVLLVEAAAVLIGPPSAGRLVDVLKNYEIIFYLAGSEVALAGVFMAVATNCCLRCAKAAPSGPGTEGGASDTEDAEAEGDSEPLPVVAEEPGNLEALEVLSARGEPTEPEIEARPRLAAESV

[36] = biological target: T3, Monocarboxylate transporter 4 (Homo sapiens) (UniProt O15427); test: Inhibition of human MCT4 expressed in INS1 cells assessed as reduction in intracellular acidification at 100 nM after 1 hr by L-Lactate uptake based BCECF staining; format: cell-based
T3 sequence (whole entry): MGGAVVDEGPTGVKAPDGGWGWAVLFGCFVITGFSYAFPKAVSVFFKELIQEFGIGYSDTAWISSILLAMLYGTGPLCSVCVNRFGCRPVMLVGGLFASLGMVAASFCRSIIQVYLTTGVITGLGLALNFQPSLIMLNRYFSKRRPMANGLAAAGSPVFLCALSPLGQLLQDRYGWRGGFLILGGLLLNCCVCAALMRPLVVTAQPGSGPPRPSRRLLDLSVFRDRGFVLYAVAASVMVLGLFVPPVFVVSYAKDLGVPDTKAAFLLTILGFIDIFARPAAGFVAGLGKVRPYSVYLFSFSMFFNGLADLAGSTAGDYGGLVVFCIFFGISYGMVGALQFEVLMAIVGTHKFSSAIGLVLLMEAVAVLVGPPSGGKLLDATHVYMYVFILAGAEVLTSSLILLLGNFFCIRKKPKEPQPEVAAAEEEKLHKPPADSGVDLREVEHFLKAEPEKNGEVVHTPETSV

[37] = system: T-cell; test: Inhibition of conversion of [1,2-13C2]glucose into [2,3-13C2]lactate in PMA-ionomycin stimulated human T cells at 10 nM after 6 hrs by GC-MS method; format: functional, cell-based
[38] = organism: Rattus norvegicus; conditions: DA/Lewis, 4 mg/kg
[39] = system: T-cell; conditions: Homo sapiens, 10 uM
[40] = system: T-cell; conditions: Homo sapiens, 10 uM; remark: listed apart in the source
[41] = system: T-cell; conditions: Homo sapiens, 50 nM

Compound: CC(C)Cn1c(=O)n(C)c(=O)c2c(C(=O)N3CCCC3)c(Cc3ccccc3C(F)(F)F)sc21
- IC50 [1]: 10 nM
- IC50 [2]: 5.37 nM
- IC50 [3]: 3.31 nM
- IC50 [4]: 2.88 nM

Compound: CC(C)Cc1nn(C)c(=O)c2cn(Cc3ccc(N=[N+]=[N-])c([125I])c3)cc12
- Ki ([5]; read-out: Ki): 23 nM

Compound: CC(C)Cn1c(=O)n(C)c(=O)c2c(C(=O)N3CC=CC3)c(Cc3ccccc3C(F)(F)F)sc21
- Ki [6]: 3.39 nM
- Ki ([5]; read-out: pKi (converted)): 10.7 nM
- IC50 [1]: 11.7 nM
- IC50 [2]: 10.2 nM
- IC50 [3]: 4.79 nM
- IC50 [4]: 12 nM

Compound: CC(C)Cn1c(=O)n(C)c(=O)c2cn(Cc3cccc4ccccc34)cc21
- IC50 [7]: 56.2 nM
- Ki [6]: 15.5 nM
- Ki ([5]; read-out: pKi (converted)): 46.8 nM

Compound: CC(C)Cn1c(=O)n(C)c(=O)c2c(C(=O)N3CC[C@@H](O)C3)c(Cc3ccnc4ccccc34)sc21
- IC50 [1]: 9.77 nM
- IC50 [2]: 11.5 nM
- IC50 [3]: 4.57 nM
- IC50 [4]: 3.24 nM

Compound: CC(C)Cn1c(=O)n(C)c(=O)c2c(SCCCO)c(Cc3cccc4ccccc34)sc21
- IC50 [8]: > 1000 nM
- IC50 [9]: > 1000 nM
- IC50 [10]: > 1000 nM
- IC50 [11]: > 1000 nM
- IC50 [12]: > 1000 nM
- IC50 [13]: > 1000 nM
- IC50 [14]: > 1000 nM
- IC50 [15]: > 1000 nM
- IC50 [16]: > 1000 nM
- IC50 [17]: > 1000 nM
- IC50 [18]: > 1000 nM
- IC50 [19]: 1.1 nM
- inhibition at 1 µM [20]: < 20%
- inhibition at 1 µM [21]: < 20%
- inhibition at 1 µM [22]: < 20%
- inhibition at 1 µM [23]: < 20%
- inhibition at 1 µM [24]: < 20%
- inhibition at 1 µM [25]: < 20%
- inhibition at 1 µM [26]: < 20%
- inhibition at 1 µM [27]: < 20%
- inhibition at 1 µM [28]: < 20%
- inhibition at 1 µM [29]: < 20%
- inhibition at 1 µM [30]: < 20%
- inhibition at 1 µM [31]: 61%
- inhibition [32]: Active
- inhibition [33]: Active
- inhibition [7]: Active
- ED50 [34]: 1.4 mg/kg/day
- inhibition [35]: inactive
- inhibition [36]: inactive
- IC50 [3]: 0.407 nM
- IC50 [4]: 0.234 nM
- inhibition [37]: Active
- inhibition [38]: Active
- inhibition [39]: inactive
- inhibition [40]: inactive
- inhibition [41]: Active

From ChEMBL document CHEMBL1221163, “Monocarboxylate transporter MCT1 is a target for immunosuppression” (Nat Chem Biol, 2005)
